Measured values published in patent publication US6866845B1, “Compositions and methods for the treatment of sepsis” (The Regents of the University of Michigan, priority 1999, dated 2005).
Where no end group is shown, it is not given here.

B1: MLQKKIEEIAAKYKHSVVKKCCYDGASVNNDETCEQRAARISLGPRCIKAFTECCVVASQLRANISHKDMQLGR (protein, listed as Homo sapiens)
chain: MLQKKIEEIAAKYKHSVVKKCCYDGASVNNDETCEQRAARISLGPRCIKAFTECCVVASQLRANISHKDMQLGR
notes: full length human complement component C5a peptide

Experiments:
[1] = test system: human neutrophils; assay: chemotaxis of human neutrophils in chemotactic chambers; assay type: cell-based; settings: for chemotactic activity of KLH conjugate compared to C5a peptide: calculated synthetic peptide concentration 100 nM, peptide:KLH approximately 3:1; for chemotactic response to peptide in medium alone: 1 μM peptide; for reduction in the chemotactic responses of neutrophils to human C5a: 1 μM peptide with 10 μM human C5a
Procedure: This Example describes the ability of certain synthetic peptides representative of regions of human C5a peptide to reduce the chemotactic response of human neutrophils to human C5a peptide. Human neutrophils were isolated from human blood by traditional Ficoll-Hypaque sedimentation techniques. Using standardized methodology, neutrophils (5×10^6/ml) labeled with 1 μg/ml BCECF [2′,7′-(2 carboxyethyl)-5-(and-6)-carboxyfluroscein, acetoxymethy ester) at 37° C. for 30 min, were applied to the upper compartments of […] The two compartments were separated by a membrane with pore sizes of 3 μm. Neutrophil chemotactic responses were quantitated by cytofluorometry.
[…] Peptide A (SEQ ID NO:4) represents residues 1-20 of human C5a peptide, peptide M (SEQ ID NO: 5) represents residues 21-40 of human C5a peptide, and peptide C (SEQ ID NO:6) represents residues 55-74 of human C5a peptide.
This Example describes neutrophil chemotactic activity of peptides A, M, and C linked to keyholelimpet hemocyanin (KLH) employing the chemotactic assay described in Example 7. The peptide:KLH molar ratios employed were approximately 3:1. […]

[2] = test system: human neutrophils; assay: competition with 125I-hC5a peptide binding to human neutrophils; settings: ratio of peptide to labelled hC5a 10:1
Text: This Examples describes certain peptides which are able to antagonize the ability of human C5a peptide to bind to human neutrophils. Three different peptides, labelled A, M, and C, were used to antagonize the binding of ^125I-hC5a peptide to human neutrophils. Again, peptide A (SEQ ID NO:4) represents residues 1-20 of human C5a peptide, peptide M (SEQ ID NO: 5) represents residues 21-40 of human C5a peptide, and peptide C (SEQ ID NO:6) represents residues 55-74 of human C5a peptide.
Human peripheral blood neutrophils (1×10^7 cells/ml) were incubated in Hank's buffered saline plus 0.1% bovine serum albumin with both ^123]-labelled hC5a peptide (300 μCi/nmol) and either peptide A, M, or C, in a final volume of 200 μl in a microfuge tube. The ratio of the shorter peptides (A, M, or C) to ^1251]-labelled hC5a peptide was 10:1. After incubation, cell suspension were layered over a 20% sucrose gradient and were sedimented by centrifugation at 11,000 g. The tubes were then frozen on dry ice, followed by cutting the tips containing the pellet. Cell-bound label was then determined by placing the tips in a gamma counter.

[3] = test system: human neutrophils; assay: H2O2 production of human neutrophils stimulated by PMA; assay type: cell-based; settings: for inhibition of PMA-elicited H2O2 response: neutrophils pretreated with peptide, then PMA
Text: This Example describes the effect of human C5a peptide, and certain shorter synthetic human C5a peptides A, M, or C, to inhibit the H2O2 production of human neutrophils stimulated by phorbol myristate acetate (PMA). Again, peptide A (SEQ ID NO:4) represents residues 1-20 of human C5a peptide, peptide M (SEQ ID NO: 5) represents residues 21-40 of human C5a peptide, and peptide C (SEQ ID NO:6) represents residues 55-74 of human C5a peptide. Human neutrophils were isolated and then pretreated with C5a peptide or one of the shorter synthetic peptides (A, M, or C). Cells were then stimulated with PMA and the production of H2O2 was measured.

[4] = target: human peripheral blood neutrophils (surface sites that bind human C5a peptide) (human) (UniProt P21730); assay: cell-based or functional assay
Sequence of UniProt P21730 (P21730 whole entry): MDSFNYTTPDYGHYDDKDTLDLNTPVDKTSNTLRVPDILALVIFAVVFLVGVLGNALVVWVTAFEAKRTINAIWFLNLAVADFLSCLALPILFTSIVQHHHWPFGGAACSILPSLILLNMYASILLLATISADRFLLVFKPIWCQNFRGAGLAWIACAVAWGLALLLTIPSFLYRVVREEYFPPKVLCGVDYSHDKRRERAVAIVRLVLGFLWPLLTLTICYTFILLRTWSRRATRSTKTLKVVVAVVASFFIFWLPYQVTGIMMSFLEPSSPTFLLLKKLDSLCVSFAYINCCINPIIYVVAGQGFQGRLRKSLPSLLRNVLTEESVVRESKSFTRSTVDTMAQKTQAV

[5] = target: rat C5a peptide (full length) (rat) (UniProt P08650); assay: flow cytometry on rat blood neutrophils, control stain
Sequence of UniProt P08650 (P08650 679-755 limits assumed): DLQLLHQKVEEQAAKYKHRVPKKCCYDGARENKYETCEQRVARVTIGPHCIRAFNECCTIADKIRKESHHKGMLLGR

Molecule	chemotactic activity of KLH conjugate compared to C5a peptide [1]	reducing the binding of hC5a peptide to human neutrophils [2]	inhibition of PMA-elicited H2O2 response [3]	chemotactic response to peptide in medium alone [1]	reduction in the chemotactic responses of neutrophils to human C5a [1]	further results
A peptide KLH conjugate: peptide A (SEQ ID NO:4) linked to keyhole limpet hemocyanin, peptide:KLH approximately 3:1 (MLQKKIEEIAAKYKHSVVKK; also: linked to keyhole limpet hemocyanin, peptide:KLH ~3:1)	most chemotactically active					
C peptide conjugate: peptide C (SEQ ID NO:6) linked to keyhole limpet hemocyanin, peptide:KLH approximately 3:1 (CVVASQLRANISHKDMQLGR; also: linked to keyhole limpet hemocyanin, peptide:KLH ~3:1)	almost as active					
CCYDGASVNNDETCEQRAAR (listed as Homo sapiens) [peptide M, residues 21-40 of human C5a peptide]		significantly (p<0.05) competitive	strongest suppression	did not per se induce any chemotactic responses	approximately 20%	
CVVASQLRANISHKDMQLGR (listed as Homo sapiens) [peptide C, residues 55-74 of human C5a peptide]		no statistically significant interference	to varying degrees	did not per se induce any chemotactic responses	approximately 20%	
M peptide conjugate: peptide M (SEQ ID NO:5) linked to keyhole limpet hemocyanin, peptide:KLH approximately 3:1 (CCYDGASVNNDETCEQRAAR; cysteine pairing not given here; also: linked to keyhole limpet hemocyanin, peptide:KLH ~3:1)	no chemotactic activity					
MLQKKIEEIAAKYKHSVVKK (listed as Homo sapiens) [peptide A, residues 1-20 of human C5a peptide]		significantly (p<0.05) competitive	to varying degrees	did not per se induce any chemotactic responses	approximately 20%	
peptide C (residues 55-74 of human C5a peptide)						chemotactic responses of neutrophils to human C5a [4]: 20%
preimmune IgG (antibody)						Mean Channel Fluorescence (binding value) (MCF (mean ± SEM)) [5]: 4.45
B1			inhibitable			effect on H2O2 production, peptide alone ([3]; without PMA): no effect
